The test system of series [1] is BIG3-PHB2 complex and ERα signalling in tumours. The series is described as follows: Co-immunoprecipitation, RT-PCR and immunoblot analysis of excised KPL-3C tumours. The class given is in vivo, mice. The protocol:
Immunoblot analyses were performed as described previously. After SDS-PAGE, the membranes were blocked with 4% BlockAce solution (Dainippon Pharmaceutical) for 3 h and then incubated with antibodies against the following proteins: BIG3 (1:1,000)[10]; PHB2 (1:1,000, Abcam); Akt (1:1,000), phospho-Akt (S473) (587F11, 1:1,000); p44/42 MAPK (1:1,000), phospho-p44/42 MAPK (T202/Y204) (1:1,000); mTOR (1:1,000); phospho-mTOR (S2448) (1:1,000); S6K (1:1,000); phopho-S6K (T389) (1:1,000); α/β-tubulin (1:1,000) (Cell Signalling Technology); and LMNB1 (1:100, Sigma). After incubation with an HRP-conjugated secondary antibody (anti-mouse IgG-HRP, 1:5,000; anti-rat IgG-HRP; 1:5,000; or anti-rabbit IgG-HRP, 1:1,000; Santa Cruz Biotechnology) for 1 h, the blots were developed with an enhanced chemiluminescence (ECL) system (GE Healthcare) and scanned using an Image Reader LAS-3000 mini (Fujifilm). All the experiments were performed in triplicate at a minimum. Full-length images of immunoblots are shown in Supplementary Fig. S5. […]
The expression of the ERα target genes (TFF1 and CCND1) was evaluated by real-time RT-PCR as described previously. Each sample was normalized to the β 2-MG mRNA content, and the results were expressed as the fold increase over untreated cells (set at 1.0). […]
The tumour volume was measured with calipers, after which time the mice were sacrificed and tumours excised. […]
(In general: A western blot detects proteins with antibodies after separation by electrophoresis.)

Series [2] relates to MCF-7 cells. Conditions: E2-dependent breast cancer cell growth; cited from earlier work. As for the experimental part:
We previously developed a dominant-negative peptide, ER α activity-regulator synthetic peptide (ERAP), which specifically disrupts the BIG3-PHB2 interaction and inhibits multiple ERα-signalling pathways driving breast cancer cell growth by reactivating tumour-suppressive activity of PHB2[10]. […] However, its inhibitory effect was only maintained for 24 h, most likely due to its high susceptibility to proteolytic degradation.

Series [3] deals with MCF-7 cells. In kind it is cell-based, human. Particulars: 96 h. The source says: After […] ERAP). Microarray analysis. […]
Series [4] relates to KPL-3C orthotropic breast cancer xenografts. The series is described as follows: In vivo tumour growth inhibition, KPL-3C orthotopic xenografts. More on the design: species or system mice. Conditions: intraperitoneal, E2 6 μg per day, n = 5. As for the experimental part:
KPL-3C cell suspensions (1 × 10^7 cells per mouse) were mixed with an equal volume of Matrigel (Corning) and injected (200 μL total) into the mammary fat pads of 6-week-old female BALB/c nude mice (Charles River Laboratories). The mice were housed in a pathogen-free isolation facility with a 12 h light/dark cycle and were fed rodent chow and water ad libitum. The tumours developed over a period of a few days, reaching sizes of approximately 100 mm^3 [calculated as 1/2 × (width × length^2)], upon injection of 6 μg per day of E2 solution to the neck skin. For intraperitoneal administration, the mice were randomized into 10 treatment groups (five animals per group): (1) no treatment; (2) 6 μg per day E2; (3) E2 + 1.4 mg kg^−1 day^−1 ERAP daily; (4) E2 + 1.4 mg kg^−1 day^−1 ERAP every 4 days; (5) E2 + 14 mg kg^−1 day^−1 ERAP daily; (6) E2 + 14 mg kg^−1 day^−1 ERAP every 4 days; (7) E2 + 1.4 mg kg^−1 day^−1 stERAP-6 daily; (8) E2 + 1.4 mg kg^−1 day^−1 stERAP-6 every 4 days; (9) E2 + 14 mg kg^−1 day^−1 stERAP-6 daily; and 10() E2 + 14 mg kg^−1 day^−1 stERAP-6 every 4 days. For intravenous administration, the mice were randomized into 10 treatment groups (five animals per group): (1) no treatment; (2) 6 μg per day E2; (3) E2 + 0.1 mg kg^−1 day^−1 stERAP-6 daily; (4) E2 + 1 mg kg^−1 day^−1 stERAP-6 daily; (5) E2 + 10 mg kg^−1 day^−1 stERAP-6 daily; (6) E2 + 0.1 mg kg^−1 day^−1 stERAP-6 weekly; (7) E2 + 1 mg kg^−1 day^−1 stERAP-6 weekly; (8) E2 + 10 mg kg^−1 day^−1 stERAP-6 weekly; (9) E2 + 1 mg kg^−1 day^−1 alanine-mutant stERAP-6 daily; and (10) E2 + 10 mg kg^−1 day^−1 alanine-mutant stERAP-6 daily. E2 was delivered via the application of a solution to the neck skin as previously noted.
The tumour volume was measured with calipers, after which time the mice were sacrificed and tumours excised. TGI was calculated according to the formula: [1 − (T − T0)/(C − C0)] × 100, where T and T0 are the mean tumour volumes at day 28 or 35 and day 1, respectively, for the experimental group, and C and C0 are those for the E2-treated group. The organs (heart, lung, liver, kidney, pancreas, and brain) were also immediately removed. A portion of each tissue was fixed in 10% neutral formalin for histological examination, while the remaining tissue sample was frozen and preserved at −80 °C for subsequent western blot analysis. All the experiments were performed in accordance with the guidelines of the animal care and use facility at Tokushima University.

A short description of series [5]: Circular dichroism, α-helical content. In kind it is physicochemical. Particulars: CD 185-265 nm, 25 °C, 50 μg mL−1 in 10 mM sodium phosphate buffer pH 7.0. The protocol:
CD spectrum in the range of 185 to 265 nm was recorded at 25 °C in a 2 mm-path quartz cuvette. Protein concentration was 50 μg mL^−1 in 10 mM sodium phosphate buffer (pH 7.0). Molar ellipticity [θ] was calculated.
(In general: Circular dichroism is widely used to follow secondary structure.)

In series [6] the test system is TAM-R MCF-7 cells. Nature of the series: MTT assay, tamoxifen-resistant (TAM-R) MCF-7 cell growth. In kind it is cell-based, human. Conditions: 10 nM E2 and 1 μM tamoxifen, single treatment at 0 h, up to 96 h; three independent experiments. (In general: Formazan colour is commonly taken as a measure of viable cells.)
Procedure: (a) MTT assays evaluating the inhibitory effect of unstapled, original ERAP (left) and stERAP-6 (right) on the growth of tamoxifen-resistant (TAM-R) MCF-7 cells. TAM-R MCF-7 cells were treated with unstapled original ERAP or stERAP-6 in the presence of 10 nM E2 and 1 μM tamoxifen (TAM) at 0 h. The data represent the mean ± s.d. of three independent experiments.
Series [7] has as its system MCF-7 cells. The series is described as follows: Cell cycle assay by flow cytometry (propidium iodide). The class given is cell-based, human. Conditions: 10 nM E2, 10 μM stERAP-6, 1 μM tamoxifen. As for the experimental part:
Cells were fixed in cold 70% ethanol, incubated with 20 µg mL^−1 propidium iodide (Sigma) and 1 mg mL^−1 ribonuclease A (Sigma), and analysed by flow cytometry using a FACSCalibur with CellQuest software (BD).

Series [8] has as its target T1, His-tagged recombinant PHB2 (UniProt Q99623 1-299).
T1 construct: PHB2 (prohibitin 2), recombinant, His-tagged; also called His-PHB2; source: recombinant
The series is described as follows: SPR; Biacore 3000; recombinant PHB2 bound to a CM5 sensor chip, peptides as analytes at the indicated concentrations; BIAevaluation software. Particulars: both partners purified.

The target in series [9] is prohibitin 2 (human (endogenous in MCF-7 and KPL-3C), UniProt Q99623 1-299). Nature of the series: cell-based or functional assay.
Sequence of prohibitin 2 (Q99623 whole entry): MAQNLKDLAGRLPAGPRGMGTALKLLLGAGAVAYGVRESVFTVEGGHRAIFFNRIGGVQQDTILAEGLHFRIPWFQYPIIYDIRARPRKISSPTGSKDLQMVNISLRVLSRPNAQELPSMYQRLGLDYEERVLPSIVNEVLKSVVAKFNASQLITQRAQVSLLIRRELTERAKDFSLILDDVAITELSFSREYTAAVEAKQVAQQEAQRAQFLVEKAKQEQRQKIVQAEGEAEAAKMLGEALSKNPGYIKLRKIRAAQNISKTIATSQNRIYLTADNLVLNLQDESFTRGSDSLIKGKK

What is called IC50 is the concentration that inhibits the measured activity by half. A higher IC50 goes with weaker potency. As a reminder, the Kd is the equilibrium constant for the complex coming apart.

Where a SMILES comes first, the peptide text is derived from it.

T1 sequence (Q99623 whole entry): as above

Consider `CSCC[C@H](NC(=O)[C@H](CCC(N)=O)NC(=O)CNC(=O)CNC(=O)CNC(=O)[C@H](CCCNC(=N)N)NC(=O)[C@H](CCCNC(=N)N)NC(=O)[C@H](CCCNC(=N)N)NC(=O)[C@H](CCCNC(=N)N)NC(=O)[C@H](CCCNC(=N)N)NC(=O)[C@H](CCCNC(=N)N)NC(=O)[C@H](CCCNC(=N)N)NC(=O)[C@H](CCCNC(=N)N)NC(=O)[C@H](CCCNC(=N)N)NC(=O)[C@H](CCCNC(=N)N)NC(=O)[C@@H](N)CCCNC(=N)N)C(=O)N[C@@H](CC(C)C)C(=O)N[C@@H](CO)C(=O)N[C@@H](CC(=O)O)C(=O)N[C@@H](CC(C)C)C(=O)N[C@H](C(=O)N[C@@H](CC(C)C)C(=O)N[C@@H](CCC(N)=O)C(=O)N[C@@H](CC(C)C)C(=O)N[C@@H](CCCNC(=N)N)C(=O)N[C@@H](CCC(N)=O)C(=O)N[C@@H](CCCNC(=N)N)C(=O)O)[C@@H](C)O` [ERAP] (H-RRRRRRRRRRRGGGQMLSDLTLQLRQR-OH; N-terminus and C-terminus assumed), for which the “E2-induced expression of TFF1 and CCND1 and phosphorylation levels of Akt and MAPK in tumours” value in series [1] (intraperitoneal treatment every 4 days for 28 days) is “did not”. Further, the “inhibition of endogenous BIG3-PHB2 complex formation in tumours” value in series [1] (intraperitoneal treatment every 4 days, co-immunoprecipitation) is reported as “but not with unstapled original ERAP”. Moreover, the “duration of inhibitory effect” value in series [2] is given as 24 h. Also, 7.97 µM corresponded to half-maximal inhibition in series [3] (IC50). The “TGI on day 28” value in [4] (1.4 mg kg−1 every 4 days) was determined as 36.9%; in [4] (1.4 mg kg−1 once a day for 28 days), 94.2%; in series [4] (14 mg kg−1 every 4 days) it was 40.3%; in series [4] (14 mg kg−1 once a day for 28 days), 94.5%. In addition, in series [5], the α-helical content worked out at 21.4%. Further, the “inhibition of growth of TAM-R MCF-7 cells” value in [6] was “reduced after 24 h treatment”.

`CC/C(=C(\c1ccccc1)c1ccc(OCCN(C)C)cc1)c1ccccc1` [tamoxifen]: the “apoptotic (sub-G1) cell population” value in series [7] was found to be 7.44%.

B1: ERα activity-regulator synthetic peptide (native ERAP; 11R-GGG-QMLSDLTLQLRQR) (peptide)
peptide: RRRRRRRRRRRGGGQMLSDLTLQLRQR
notes: membrane-permeable polyarginine (11R) and GGG linker, printed as 11R-GGG; also called unstapled original ERAP; dominant-negative peptide; source: synthetic peptide
As for B1, the dissociation constant (Kd) in [8] was 12.8 µM. The “IC50 of E2-dependent MCF-7 cell growth at 96 h after a single treatment (MTT); the peptide blocks BIG3-PHB2” value in [9] was 7.97 µM.

The values are drawn from paper PMC5431889, “Stapled BIG3 helical peptide ERAP potentiates anti-tumour activity for breast cancer therapeutics” (Scientific Reports, 2017).
